Results published in patent US11925679B2, “H3.3 CTL peptides and uses thereof” (The Regents of the University of California, priority 2015, dated 2024).

Key:
[1] = system: purified HLA-A2 class I molecules; assay: Competitive binding inhibition assay with purified HLA-A2 and radiolabeled probe peptide; parameters: species or system human; conditions: cell-free binding assay, FIG. 8A
[2] = system: HLA-A*0201+ donor-derived PBMCs; assay: In vitro stimulation of donor PBMCs with peptide, tetramer staining of CD8+ T-cells
Procedure: Peripheral blood mononuclear cells from an HLA-A ? + donor were stimulated in vitro with the H3.3.K27M peptide and evaluated for their reactivity against: (1A) HLA-A ? /H3.3.K27M-specific tetramer and anti-CD8 mAb, and (1B) T2 cells pulsed with the mutant or non-mutated H3.3 peptide by IFN-γ ELISA.
Induction and isolation of H3.3K27M-specific CTL clones. To generate dendritic cells, the plastic adherent cells from PBMCs were cultured in AIM-V medium (Invitrogen) supplemented with 1,000 units/mL recombinant human granulocyte macrophage colony-stimulating factor and 500 units/mL recombinant human IL-4 (rhIL-4; Cell Sciences) at 37° C. in a humidified CO2 (5%) incubator. Six days later, the immature dendritic cells were stimulated with recombinant human tumor necrosis factor-α, IL-6, and IL-1 (10 ng/mL each). Mature dendritic cells were then harvested on day 8, resuspended in AIM-V medium at 1×10^6 cells per mL with peptide (10 μg/mL), and incubated for 2 hours at 37° C. Populations of autologous CD8^+ T-cells were enriched from PBMCs using magnetic microbeads (Miltenyi Biotech). CD8^+ T-cells (2×10^6 per well) were co-cultured with 2×10^5 per well peptide-pulsed dendritic cells in 2 mL/well of AIM-V medium supplemented with 5% human AB serum, 10 units/mL rhIL-2 (R&D Systems, Minneapolis, Minn.), and 10 units/mL rhIL-7 (Cell Sciences) in each well of 24-well tissue culture plates. On day 15, lymphocytes were re-stimulated with autologous dendritic cells pulsed with peptide in AIM-V medium supplemented with 5% human AB serum, rhIL-2, and rhIL-7 (10 units/mL each).
HLA-A*0201-peptide tetramer staining. […] (SEQ ID NO:2) tetramer (H3.3K27M-tetramer) was produced by the National Institute of Allergy and Infectious Disease tetramer facility within the Emory University Vaccine Center (Atlanta, Ga.) using the peptide synthesized by A&A labs (San Diego; CA). […] Cells were then washed with FACS Buffer (PBS containing 1% FBS). For some experiments, T-cells were stained with tetramer, followed by anti-human CD8 APC (Biolegend, 344722) and anti-human CD69 FITC (eBioscience, 11-0699-42).

Sequence | affinity to HLA-A*0201 relative to H3.3.K27M (26-35) [1] | CD8+tetramer+ population ([2]; FIG. 2A) | tetramer high subpopulation ([2]; FIG. 2A) | CD8+ cells bound to the HLA-A*0201-H3.3.K27M (26-35) tetramer ([2]; several weekly stimulation cycles in vitro)
XMSAPSTGGV [Cit H3.3] | partially retains its affinity | – | – | –
RMSAPSTGGV [H3.3.K27M (26-35)] | – | 64.1 % of total lymphocyte-gated cells | 2.4 % of total lymphocyte-gated cells | over 60%
